Data from ChEMBL document CHEMBL4219204, “Structure-based design and discovery of potent and selective KDM5 inhibitors” (Bioorg Med Chem Lett, 2018).

Columns and labels:
[1] = biological target: Voltage-gated inwardly rectifying potassium channel KCNH2 (Homo sapiens, UniProt Q12809); experiment: Inhibition of human ERG
[2] = Kinetic solubility of the compound; format: physicochemical
[3] = biological target: T1, Lysine-specific demethylase 2A (Homo sapiens, UniProt Q9Y2K7); experiment: Inhibition of KDM2A (unknown origin)
T1 sequence (Q9Y2K7 whole entry): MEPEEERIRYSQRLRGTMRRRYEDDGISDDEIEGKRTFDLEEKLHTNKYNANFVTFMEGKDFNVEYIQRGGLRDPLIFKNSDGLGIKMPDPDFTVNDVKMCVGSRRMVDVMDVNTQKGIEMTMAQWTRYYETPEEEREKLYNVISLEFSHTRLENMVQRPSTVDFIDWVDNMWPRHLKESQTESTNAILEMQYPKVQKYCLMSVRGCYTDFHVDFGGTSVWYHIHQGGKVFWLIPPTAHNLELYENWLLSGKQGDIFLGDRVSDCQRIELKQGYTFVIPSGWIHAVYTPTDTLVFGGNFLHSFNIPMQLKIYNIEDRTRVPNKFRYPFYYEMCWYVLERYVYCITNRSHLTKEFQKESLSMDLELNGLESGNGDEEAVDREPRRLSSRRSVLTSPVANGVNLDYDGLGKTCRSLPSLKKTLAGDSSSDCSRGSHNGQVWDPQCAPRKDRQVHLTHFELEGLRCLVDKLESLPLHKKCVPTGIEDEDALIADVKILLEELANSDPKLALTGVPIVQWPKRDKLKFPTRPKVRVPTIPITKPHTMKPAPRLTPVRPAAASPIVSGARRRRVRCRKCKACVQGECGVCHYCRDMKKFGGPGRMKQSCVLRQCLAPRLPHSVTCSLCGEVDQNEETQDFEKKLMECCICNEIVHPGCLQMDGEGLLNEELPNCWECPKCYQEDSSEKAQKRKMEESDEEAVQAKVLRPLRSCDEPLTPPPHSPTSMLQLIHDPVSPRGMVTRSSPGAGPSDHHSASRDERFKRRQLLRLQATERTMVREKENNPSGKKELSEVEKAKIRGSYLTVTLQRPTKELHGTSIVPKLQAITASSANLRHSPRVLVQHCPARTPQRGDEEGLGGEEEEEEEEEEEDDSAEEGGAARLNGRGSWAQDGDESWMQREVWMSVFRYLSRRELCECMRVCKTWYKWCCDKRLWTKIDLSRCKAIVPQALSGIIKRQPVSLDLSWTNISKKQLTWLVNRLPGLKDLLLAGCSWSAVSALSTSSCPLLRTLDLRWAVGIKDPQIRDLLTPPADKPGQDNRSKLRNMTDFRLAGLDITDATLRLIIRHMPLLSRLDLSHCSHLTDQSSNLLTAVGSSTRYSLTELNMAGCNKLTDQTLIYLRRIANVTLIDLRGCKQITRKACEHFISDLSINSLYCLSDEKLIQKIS

[4] = biological target: T2, Lysine-specific demethylase 3A (Homo sapiens, UniProt Q9Y4C1); experiment: Inhibition of KDM3A (unknown origin)
T2 sequence (Q9Y4C1 whole entry): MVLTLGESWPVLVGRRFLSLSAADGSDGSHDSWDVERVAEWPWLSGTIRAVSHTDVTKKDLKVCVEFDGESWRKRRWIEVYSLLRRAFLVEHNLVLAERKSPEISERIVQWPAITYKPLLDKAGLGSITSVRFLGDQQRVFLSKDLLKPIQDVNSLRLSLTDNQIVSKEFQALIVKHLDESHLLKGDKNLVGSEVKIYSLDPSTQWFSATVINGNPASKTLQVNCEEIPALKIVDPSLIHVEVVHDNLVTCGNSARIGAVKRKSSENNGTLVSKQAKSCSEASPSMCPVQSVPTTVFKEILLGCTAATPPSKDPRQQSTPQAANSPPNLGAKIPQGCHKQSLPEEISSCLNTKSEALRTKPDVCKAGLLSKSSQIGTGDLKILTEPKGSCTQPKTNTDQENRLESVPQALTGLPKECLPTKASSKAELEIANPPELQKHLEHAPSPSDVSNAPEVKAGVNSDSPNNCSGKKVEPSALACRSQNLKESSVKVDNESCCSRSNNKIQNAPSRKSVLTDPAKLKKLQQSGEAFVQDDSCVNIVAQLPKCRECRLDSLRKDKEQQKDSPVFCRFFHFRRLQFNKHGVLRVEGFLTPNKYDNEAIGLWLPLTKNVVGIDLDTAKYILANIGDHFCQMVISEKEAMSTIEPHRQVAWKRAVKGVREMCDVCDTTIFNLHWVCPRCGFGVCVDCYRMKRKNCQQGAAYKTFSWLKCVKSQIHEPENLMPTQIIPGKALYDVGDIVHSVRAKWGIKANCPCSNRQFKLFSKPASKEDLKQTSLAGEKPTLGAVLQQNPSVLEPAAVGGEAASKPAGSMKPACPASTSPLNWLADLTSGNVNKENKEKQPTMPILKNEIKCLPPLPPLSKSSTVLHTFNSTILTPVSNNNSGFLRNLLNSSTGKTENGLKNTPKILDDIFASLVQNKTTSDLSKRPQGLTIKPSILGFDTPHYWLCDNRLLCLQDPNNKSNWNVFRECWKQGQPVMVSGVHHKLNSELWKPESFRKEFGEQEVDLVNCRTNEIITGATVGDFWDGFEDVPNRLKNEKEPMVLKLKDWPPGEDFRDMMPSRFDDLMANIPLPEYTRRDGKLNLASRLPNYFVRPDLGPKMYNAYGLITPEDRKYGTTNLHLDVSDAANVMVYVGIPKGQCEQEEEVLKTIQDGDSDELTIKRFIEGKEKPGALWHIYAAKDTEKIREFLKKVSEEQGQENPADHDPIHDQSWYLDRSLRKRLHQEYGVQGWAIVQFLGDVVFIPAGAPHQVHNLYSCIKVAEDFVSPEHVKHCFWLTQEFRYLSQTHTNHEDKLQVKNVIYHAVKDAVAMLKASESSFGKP

[5] = AUC in CD-1 mouse at 10 mg/kg, po; format: ADME, organism-based; conditions: in vivo
[6] = biological target: T3, Lysine-specific demethylase 4D (Homo sapiens, UniProt Q6B0I6); experiment: Inhibition of KDM4D (unknown origin)
T3 sequence (Q6B0I6 whole entry): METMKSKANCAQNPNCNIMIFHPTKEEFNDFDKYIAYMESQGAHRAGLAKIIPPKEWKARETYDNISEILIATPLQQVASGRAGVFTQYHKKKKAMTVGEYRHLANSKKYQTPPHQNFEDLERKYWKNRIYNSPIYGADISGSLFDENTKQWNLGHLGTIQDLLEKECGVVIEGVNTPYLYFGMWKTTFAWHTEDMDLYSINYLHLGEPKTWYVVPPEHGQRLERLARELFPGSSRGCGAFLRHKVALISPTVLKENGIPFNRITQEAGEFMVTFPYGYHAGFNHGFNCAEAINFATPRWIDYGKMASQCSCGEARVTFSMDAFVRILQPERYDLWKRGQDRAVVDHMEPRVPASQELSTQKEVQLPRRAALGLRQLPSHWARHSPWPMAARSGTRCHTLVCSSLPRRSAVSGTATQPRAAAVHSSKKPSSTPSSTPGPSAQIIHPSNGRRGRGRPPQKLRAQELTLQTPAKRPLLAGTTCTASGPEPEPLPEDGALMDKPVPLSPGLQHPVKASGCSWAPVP

Voltage-gated inwardly rectifying potassium channel KCNH2, sequence (Q12809 whole entry): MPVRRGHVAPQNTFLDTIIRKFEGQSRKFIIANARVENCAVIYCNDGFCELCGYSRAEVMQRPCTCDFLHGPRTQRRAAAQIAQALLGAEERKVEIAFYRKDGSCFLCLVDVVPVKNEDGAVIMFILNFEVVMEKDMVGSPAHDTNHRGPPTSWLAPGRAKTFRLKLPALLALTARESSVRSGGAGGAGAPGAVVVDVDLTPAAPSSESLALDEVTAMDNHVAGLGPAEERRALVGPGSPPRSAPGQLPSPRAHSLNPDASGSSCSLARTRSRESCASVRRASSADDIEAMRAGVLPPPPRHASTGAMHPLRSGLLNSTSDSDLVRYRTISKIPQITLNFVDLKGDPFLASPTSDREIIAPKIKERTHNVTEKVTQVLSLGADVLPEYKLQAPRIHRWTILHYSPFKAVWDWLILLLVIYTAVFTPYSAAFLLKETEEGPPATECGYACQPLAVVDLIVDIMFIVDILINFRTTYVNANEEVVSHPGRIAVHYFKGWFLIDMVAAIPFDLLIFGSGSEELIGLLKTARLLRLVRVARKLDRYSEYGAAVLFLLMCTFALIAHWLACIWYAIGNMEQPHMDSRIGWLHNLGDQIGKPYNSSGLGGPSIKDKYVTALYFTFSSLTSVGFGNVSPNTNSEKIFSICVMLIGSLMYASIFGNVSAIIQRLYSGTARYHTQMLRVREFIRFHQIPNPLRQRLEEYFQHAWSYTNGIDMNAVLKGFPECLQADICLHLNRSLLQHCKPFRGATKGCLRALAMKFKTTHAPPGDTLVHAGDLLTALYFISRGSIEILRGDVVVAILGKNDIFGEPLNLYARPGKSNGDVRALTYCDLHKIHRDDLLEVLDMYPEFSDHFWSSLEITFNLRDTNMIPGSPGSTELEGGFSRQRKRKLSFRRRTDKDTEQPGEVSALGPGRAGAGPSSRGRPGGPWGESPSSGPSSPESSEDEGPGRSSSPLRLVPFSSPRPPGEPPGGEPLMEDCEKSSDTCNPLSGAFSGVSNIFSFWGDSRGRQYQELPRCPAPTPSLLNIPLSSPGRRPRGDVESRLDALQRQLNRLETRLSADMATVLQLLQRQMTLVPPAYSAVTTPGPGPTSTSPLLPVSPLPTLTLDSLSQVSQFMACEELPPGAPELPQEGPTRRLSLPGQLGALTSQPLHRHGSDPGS

Kinetic_solubility [2]: Soluble | IC50 [3]: 820 nM | IC50 [4]: 2300 nM | AUC [5]: 44000 ng·h/mL | IC50 [6]: 110 nM
SMILES: Cc1cc(Cl)ccc1COc1ccnn1-c1cc(C(=O)O)ccn1
inhibition (INH) [1]: Not Active
